“And” between values parts separate entries of the source, which are not always exact repeats. Equal entries are not always repeated. Where two headings read alike, the source gives them in different places.
Legend:
[1] = critical micellization concentration (cmc); assay type: physicochemical
[2] = hydrodynamic (Stokes) radius / size of micelles and vesicles, inelastic light scattering; assay type: physicochemical
[3] = biological target: B. subtilis DNA polymerase III (Bacillus subtilis, UniProt P13267); test: inhibition of DNA polymerase III by micellarly included Hg(CN)2 and Hg(CN)2 ascorbate; assay type: biochemical; conditions: micellarly included Hg(CN)2 / Hg(CN)2 ascorbate in the tenside named
B. subtilis DNA polymerase III, sequence (P13267 whole entry): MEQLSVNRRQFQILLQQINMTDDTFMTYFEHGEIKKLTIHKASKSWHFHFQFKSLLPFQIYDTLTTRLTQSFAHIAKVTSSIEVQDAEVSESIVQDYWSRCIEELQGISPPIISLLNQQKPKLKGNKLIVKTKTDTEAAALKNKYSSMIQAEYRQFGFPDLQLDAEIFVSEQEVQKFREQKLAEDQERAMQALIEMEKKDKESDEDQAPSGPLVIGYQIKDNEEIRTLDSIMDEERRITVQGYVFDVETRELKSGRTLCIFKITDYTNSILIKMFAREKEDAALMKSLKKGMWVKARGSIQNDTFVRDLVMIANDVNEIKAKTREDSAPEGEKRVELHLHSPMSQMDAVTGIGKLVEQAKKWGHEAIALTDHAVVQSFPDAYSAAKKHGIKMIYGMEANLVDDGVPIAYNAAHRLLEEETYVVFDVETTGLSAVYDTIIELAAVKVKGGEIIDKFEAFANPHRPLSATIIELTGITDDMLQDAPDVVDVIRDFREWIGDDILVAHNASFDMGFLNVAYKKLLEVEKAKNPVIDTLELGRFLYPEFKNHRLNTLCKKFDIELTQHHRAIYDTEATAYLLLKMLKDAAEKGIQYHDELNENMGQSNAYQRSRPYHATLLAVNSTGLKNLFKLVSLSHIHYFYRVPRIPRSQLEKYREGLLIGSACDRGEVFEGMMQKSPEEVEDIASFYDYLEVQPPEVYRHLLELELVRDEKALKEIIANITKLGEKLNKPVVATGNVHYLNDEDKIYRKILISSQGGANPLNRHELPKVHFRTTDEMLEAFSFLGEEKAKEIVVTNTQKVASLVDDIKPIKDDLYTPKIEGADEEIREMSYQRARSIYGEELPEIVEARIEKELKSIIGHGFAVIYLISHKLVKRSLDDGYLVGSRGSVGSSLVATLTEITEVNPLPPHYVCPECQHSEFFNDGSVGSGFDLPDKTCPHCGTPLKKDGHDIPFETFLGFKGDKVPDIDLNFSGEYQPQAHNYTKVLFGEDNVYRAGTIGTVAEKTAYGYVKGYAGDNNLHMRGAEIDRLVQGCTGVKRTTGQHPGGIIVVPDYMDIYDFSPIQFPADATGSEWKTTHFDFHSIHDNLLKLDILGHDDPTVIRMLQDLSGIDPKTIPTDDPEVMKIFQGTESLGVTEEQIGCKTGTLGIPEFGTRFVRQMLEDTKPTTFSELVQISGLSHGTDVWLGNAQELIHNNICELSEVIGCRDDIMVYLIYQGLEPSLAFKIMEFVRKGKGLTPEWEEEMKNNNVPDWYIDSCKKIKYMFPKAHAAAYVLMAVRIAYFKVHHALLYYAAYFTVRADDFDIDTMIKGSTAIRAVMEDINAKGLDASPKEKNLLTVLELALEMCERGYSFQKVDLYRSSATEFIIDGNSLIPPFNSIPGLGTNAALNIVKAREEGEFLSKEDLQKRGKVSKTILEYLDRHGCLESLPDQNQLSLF
Procedure: Analogously to example 2 10 mg Hg(CN)2 and 40 mg Na ascorbate at pH 7.0 are dissolved in 10 ml phosphate buffer. The suspension is subjected to an ultrasonic treatment at 0° C. for 5 min, slowly heated to 20° C. and centrifuged to a 10% (^w /w) linear glycerol gradient in a preparative ultracentrifuge at 1000 xg for 6 hours (20° C., Polyalomer tubes).
The inhibitor concentrations are given in 50% of the complete inhibition. The assay which was used is that according to Clements, J; D'Ambrosio, J; Brown, N.C; J.Biol.Chem. (1975) 250, 522 and Wright, G.E.; Brown, N.C; Biochem. Biophys. Acta (1976) 432, 37.

influenza A virus = assay type: cell-based
influenza A strains [4] = assay type: cell-based, influenza virus type A
influenza virus type B = test: inhibition of influenza B in vitro; assay type: cell-based
Procedure: Amantadine (1-adamantanamine-HCl) has a particular pharmadynamic action against influenza viruses (class A). The replication of most influenza A strains is inhibited in vitro between 0.2-0.6 μg/ml. Micellarly included amantadine in cationic micelles, in particular of the form (Het≡N--(CH2)x --CH3)Y⊖, effect a reduction of the concentration of pharmaceutical active substance to 0.05 μg/ml amantadine, measured by Hayden et al. (Plaque inhibition assay for drug susceptibility resting of influenza viruses. Antimicrob. Ag. Chemother. 1980, 17: […]; Grunert et al.; Sensitivity of influenza A/New Jersey 18/76/(Hswl-Nl) virus to amantadine HCl, J. Inf. Dis. 1977, 136, 297-300).
With a concentration of 0.01% by weight of amantadine for influenza virus type B corresponding to a concentration of 0.5 μg/ml pharmaceutical active substance in vitro.

influenza A strains [5] = conditions: amantadine on its own, in vitro; cited from earlier work
[6] = micellar incorporation of active substances by dialysis, extinction at 260 nm; assay type: physicochemical; conditions: hexadecylpyridinium chloride micelles, 20° C., pH 5.5
[7] = tested on: influenza virus, subgroup A2; Herpes simplex virus HSV I-III; assay type: cell-based; conditions: monolayer cells infected with Herpes simplex virus type 1 or influenza virus type A2; with N+-tensides of formula I and II
pyrimidine biosynthesis = test: pyrimidine biosynthesis; conditions: micellarly included
salivary secretion = conditions: in vivo
fungus = test: antifungal effect in combination with N-tensides; conditions: combination with N+ tensides of formula I and II
adenosine-desaminase = biological target: T1, adenosine-desaminase (Homo sapiens, UniProt P00813); test: antitumor activity of micellarly dissolved adenosine-desaminase inhibitors; conditions: dissolved micellarly according to formula I and II
T1 sequence (P00813 1-363): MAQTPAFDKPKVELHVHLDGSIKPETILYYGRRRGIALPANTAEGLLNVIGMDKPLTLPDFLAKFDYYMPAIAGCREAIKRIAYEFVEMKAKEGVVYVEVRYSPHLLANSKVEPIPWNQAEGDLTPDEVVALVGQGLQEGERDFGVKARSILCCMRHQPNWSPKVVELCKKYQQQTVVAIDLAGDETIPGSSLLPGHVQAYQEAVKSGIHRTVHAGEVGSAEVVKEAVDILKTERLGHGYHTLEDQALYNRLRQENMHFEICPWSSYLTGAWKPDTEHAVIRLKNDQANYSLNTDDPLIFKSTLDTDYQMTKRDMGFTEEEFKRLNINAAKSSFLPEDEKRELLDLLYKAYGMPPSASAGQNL

[8] = in vivo; cited from earlier work

Compound: 2,5-Dimethyl-3-hexadecyl-thiazolium
- cmc × 10^-6 M ([1]; Table 2, HET≡N+-(CH2)x-CH3 Y-): 15.00 × 10^-6 M

Compound: 2,6-Dihydroxy-dodecyl-pyrimidinium
- cmc × 10^-6 M ([1]; Table 2, HET≡N+-(CH2)x-CH3 Y-): 1.90 × 10^-6 M

Compound: 2-Carboxamid-3-hexadecyl-1,4-pyridinium
- <RH> hydrodynamic radius ([2]; Table 3, counter ion Y- = NO3-): 440 Å

Compound: 2-Hydroxy,5-methyl,6-amino-hexadecyl-pyrimidinium
- cmc × 10^-6 M ([1]; Table 2, HET≡N+-(CH2)x-CH3 Y-): 1.00 × 10^-6 M

Compound: 2-Hydroxy,6-amino-hexadecyl-pyrimidinium
- cmc × 10^-6 M ([1]; Table 2, HET≡N+-(CH2)x-CH3 Y-): 2.00 × 10^-6 M

Compound: 2-carboxamid-3-dodecyl-1,4-pyridinium
- <RH> hydrodynamic radius ([2]; Table 3, counter ion Y- = NO3-): 366 Å

Compound: 3,5-bis[n-hexadecyloxy-carbonyl]-N-methyl-pyridinium
- competitive with [3]: dGTP

Compound: 3-Dodecyl-6-methyl-benzimidazolium
- cmc × 10^-6 M ([1]; Table 2, HET≡N+-(CH2)x-CH3 Y-): 7.30 × 10^-6 M

Compound: 3-Hexadecyl-5,6-dihydroxy-benzthiazolium
- cmc × 10^-6 M ([1]; Table 2, HET≡N+-(CH2)x-CH3 Y-): 7.90 × 10^-6 M

Compound: 3-Hexadecyl-6-methyl-benzimidazolium
- cmc × 10^-6 M ([1]; Table 2, HET≡N+-(CH2)x-CH3 Y-): 17.00 × 10^-6 M

Compound: 3-Hexadecylbenzimidazolium
- cmc × 10^-6 M ([1]; Table 2, HET≡N+-(CH2)x-CH3 Y-): 6.70 × 10^-6 M

Compound: 3-Hexadecylthiazolium
- cmc × 10^-6 M ([1]; Table 2, HET≡N+-(CH2)x-CH3 Y-): 0.91 × 10^-6 M

Compound: 3-[[(Dimethylamino)-carboxyl]oxyl]-1-hexadecyl-pyridinium
- competitive with [3]: dATP

Compound: 4-Methyl- -2-hexadecyl-pyrazolium
- cmc × 10^-6 M ([1]; Table 2, HET≡N+-(CH2)x-CH3 Y-): 0.70 × 10^-6 M

Compound: 5-Methyl-1-hexadecylimidazolium
- cmc × 10^-6 M ([1]; Table 2, HET≡N+-(CH2)x-CH3 Y-): 3.90 × 10^-6 M

Compound: 8-Ketohexadecylpyridinium
- competitive with [3]: dGTP

Compound: Cl.NC12CC3CC(CC(C3)C1)C2 [1-adamantaneamine HCl, 1-adamantanamine-HCl]
- Inhibition, 10log (pfu/ml of the inhibitor)/(pfu/ml check) (influenza A virus): -1.11
- Titration of infection, Plaque forming units (influenza A virus): 2 × 10^6
- concentration of active substance for inhibition (influenza A strains [4]): 0.05 µg/mL
- activity against influenza virus type B (influenza virus type B; amantadine on its own): practically no activity
- concentration showing inhibition of influenza virus type B (influenza virus type B; micellarly included in cationic tensides, 0.01% by weight of amantadine): 0.5 µg/mL
- concentration inhibiting replication of most influenza A strains (influenza A strains [5]): 0.2 to 0.6 µg/mL

Compound: CCCCCCCCCCCCCCCC[n+]1c(O)ncc(F)c1O [2,6-Dihydroxy,5-Fluor,hexadecyl-pyrimidinium]
- cmc × 10^-6 M ([1]; Table 2, HET≡N+-(CH2)x-CH3 Y-): 0.85 × 10^-6 M

Compound: CCCCCCCCCCCCCCCC[n+]1cc(F)c(O)cc1O [2,-4-Dihydroxy-5-Fluoro hexadecyl-pyridinium]
- <RH> hydrodynamic radius [2]: 210 and 150

Compound: CCCCCCCCCCCCCCCC[n+]1cc(C)c(O)cc1O [2,-4-Dihydroxy-5-methyl-hexadecyl-pyridinium]
- <RH> hydrodynamic radius [2]: 1000 and 1500

Compound: CCCCCCCCCCCCCCCC[n+]1ccnc(C(N)=O)c1 [2-Carboxamide-4-hexadecyl-1,4-diazinium]
- cmc × 10^-6 M ([1]; Table 2, HET≡N+-(CH2)x-CH3 Y-): 0.30 × 10^-6 M

Compound: CCCCCCCCCCCC[n+]1csc2ccccc21 [3-Dodocyl-benzthiazolium]
- cmc × 10^-6 M ([1]; Table 2, HET≡N+-(CH2)x-CH3 Y-): 10.90 × 10^-6 M

Compound: CCCCCCCCCCCCCCCCC(CCCCCCCCCCCCCCCC)c1cc[n+](C)cc1.[Cl-] [4-(17-tritriacontyl)-N-methylpyridinium chloride]
- competitive with [3]: dGTP

Compound: CCCCCCCCCCCC[n+]1ccccc1 [Dodecyl-pyridinium]
- cmc × 10^-6 M [1]: 1.52

Compound: O=c1[nH]c(=O)n([C@H]2C[C@H](O)[C@@H](CO)O2)cc1I [Idoxuridine, idoxuridine]
- Yield (%) of micellar incorporation ([6]; Table 1 experiment 1, Trifluoroamame 5, Idoxuridine […]100 ml): 95%
- Yield (%) of micellar incorporation ([6]; Table 1 experiment 2, Trifluoroamame 7.5, Idoxuridine 10.5 mg/100 ml): 98%
- Yield (%) of micellar incorporation ([6]; Table 1 experiment 3, Trifluoroamame 10.0, Idoxuridine 12.5 mg/100 ml): 98%
- Yield (%) of micellar incorporation ([6]; Table 1 experiment 4, Trifluoroamame 12.0, Idoxuridine […]100 ml): 98%
- Yield (%) of micellar incorporation ([6]; Table 1 experiment 5, Trifluoroamame 15.0, Idoxuridine 17.0 mg/100 ml): 97%
- Yield (%) of micellar incorporation ([6]; Table 1 experiment 6, Trifluoroamame 17.0, Idoxuridine 20.0 mg/100 ml): 96%
- Yield (%) of micellar incorporation ([6]; Table 1 experiment 7, Trifluoroamame 20.0, Idoxuridine 21.5 mg/100 ml): 98%
- Yield (%) of micellar incorporation ([6]; Table 1 experiment 8, Trifluoroamame 25.0, Idoxuridine 23.0 mg/100 ml): 100%
- Yield (%) of micellar incorporation ([6]; Table 1 experiment 9, Trifluoroamame 30.0, Idoxuridine 24.0 mg/100 ml): 100%
- Yield (%) of micellar incorporation ([6]; Table 1 experiment 10, Trifluoroamame 50.0, Idoxuridine 30.0 mg/100 ml): 100%
- lowering of the inhibition concentration compared with applications without quaternary ammonium bases [7]: 30%

Compound: O=C(O)C[C@H](NC(=O)CP(=O)(O)O)C(=O)O [N-(phosphonoacetyl)-aspartate]
- intensification of the effect on pyrimidine biosynthesis (blocking of the carbamylation of aspartate) (pyrimidine biosynthesis): 20 fold

Compound: CN1[C@@H]2CC[C@H]1C[C@@H](OC(=O)C(CO)c1ccccc1)C2 (stereo partly drawn) [atropine]
- intensification of the inhibitory effect on salivary secretion (salivary secretion): tenfold

Compound: Clc1ccccc1C(c1ccccc1)(c1ccccc1)n1ccnc1 [clotrimazole]
- intensification of the antifungal effect by N+ tensides (fungus): ≈ 35%

Compound: Nc1ccn([C@@H]2O[C@H](CO)[C@@H](O)[C@@H]2O)c(=O)n1 [cytarabine]
- lowering of the inhibition concentration compared with applications without quaternary ammonium bases [7]: 30%

Compound: Clc1ccc(COC(Cn2ccnc2)c2ccc(Cl)cc2Cl)cc1 (stereo not drawn) [econazole]
- intensification of the antifungal effect by N+ tensides (fungus): ≈ 35%

Compound: CCCCCCCCCCCCCCCC[n+]1ccccc1.[Cl-] [hexadecylpyridinium chloride, N-(n-hexadecyl)-pyridinium chloride, reference compound]
- RH (Å) (±5.0 Å) ([2]; pH 5.5): 45.0 and 50.5 and 60.0 and 65.0 and 71.5 and 75.0 and 78.0

Compound: Clc1ccc(COC(Cn2ccnc2)c2ccc(Cl)cc2Cl)c(Cl)c1 (stereo not drawn) [miconazole]
- intensification of the antifungal effect by N+ tensides (fungus): ≈ 35%

Compound: NC(=O)c1[nH]nc([C@@H]2O[C@H](CO)[C@@H](O)[C@H]2O)c1O [pyrazofurine]
- irreversible inhibition of pyrimidine biosynthesis (pyrimidine biosynthesis): 20%

Compound: CC(N)C12CC3CC(CC(C3)C1)C2.Cl (stereo not drawn) [rimantadine, α-methyl-1-adamantanemethylamine hydrochloride]
- dose with the same in vitro effect as the pure active substance (influenza A strains [4]): 0.05 µg/mL

Compound: O=c1[nH]c(=O)n([C@H]2C[C@H](O)[C@@H](CO)O2)cc1C(F)(F)F [trifluorothymidine]
- lowering of the inhibition concentration compared with applications without quaternary ammonium bases [7]: 30%

Compound: Cetyl-2,3-dihydroxy-propyl-hexadecyl-pyridinium
- <RH> hydrodynamic radius [2]: 150.0 and 180.4 and 210.4 and 120.0

Compound: Dodecyl-pyrimidinium
- cmc × 10^-6 M ([1]; Table 2, HET≡N+-(CH2)x-CH3 Y-): 1.20 × 10^-6 M

Compound: Hexadecyl-4-Hydroxy-pyridinium
- cmc × 10^-6 M ([1]; Table 2, HET≡N+-(CH2)x-CH3 Y-): 0.95 × 10^-6 M

Compound: Hexadecyl-pyrimidinium
- cmc × 10^-6 M ([1]; Table 2, HET≡N+-(CH2)x-CH3 Y-): 2.50 × 10^-6 M

Compound: N-Hexadecyl-4-cetyl-imidazolinium
- <RH> hydrodynamic radius [2]: 100 and 150

Compound: erythro-9-(2-hydroxy-3-nonyl)-adenine
- intensification of the antitumor activity (adenosine-desaminase): tenfold

Compound: polymyxin B
- plasma half life [8]: 4.5 h
